What all share (conditions): 500 μM ATPγS vs none; normal (aerated) culture lysate; competitive
In one assay the target is Universal stress protein (Mycobacterium tuberculosis, UniProt P9WLB5).
The target of another assay is Adenylate kinase, Adk (Mycobacterium tuberculosis, UniProt P9WKF5).
Assay [1] addresses Phosphoglycerate kinase, Pgk (Mycobacterium tuberculosis, UniProt P9WID1).
In assay [2] the target is ATP-dependent protease ATP-binding subunit, ClpC1 (Mycobacterium tuberculosis, UniProt P9WPC9).
Assay [3] concerns the target Polyphosphate kinase, Ppk (Mycobacterium tuberculosis, UniProt P9WHV9).

Each structure is given as a SMILES string.

Sequence of Phosphoglycerate kinase, Pgk (P9WID1 whole entry): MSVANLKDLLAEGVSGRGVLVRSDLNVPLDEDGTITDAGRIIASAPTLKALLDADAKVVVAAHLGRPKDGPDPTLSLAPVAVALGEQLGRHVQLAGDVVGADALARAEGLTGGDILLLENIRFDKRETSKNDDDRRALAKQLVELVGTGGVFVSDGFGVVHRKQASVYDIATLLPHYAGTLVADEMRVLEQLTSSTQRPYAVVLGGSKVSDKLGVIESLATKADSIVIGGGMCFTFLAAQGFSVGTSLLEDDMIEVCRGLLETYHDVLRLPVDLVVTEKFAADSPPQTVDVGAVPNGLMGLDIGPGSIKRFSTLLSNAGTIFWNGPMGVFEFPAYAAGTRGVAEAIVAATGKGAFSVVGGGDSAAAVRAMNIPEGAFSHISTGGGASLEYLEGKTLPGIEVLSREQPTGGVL
Sequence of Adenylate kinase, Adk (P9WKF5 whole entry): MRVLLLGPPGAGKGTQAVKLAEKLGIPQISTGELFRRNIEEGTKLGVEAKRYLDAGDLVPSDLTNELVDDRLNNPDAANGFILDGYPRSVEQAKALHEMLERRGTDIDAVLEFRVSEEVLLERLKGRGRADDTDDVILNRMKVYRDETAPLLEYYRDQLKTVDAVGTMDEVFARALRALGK
Sequence of ATP-dependent protease ATP-binding subunit, ClpC1 (P9WPC9 whole entry): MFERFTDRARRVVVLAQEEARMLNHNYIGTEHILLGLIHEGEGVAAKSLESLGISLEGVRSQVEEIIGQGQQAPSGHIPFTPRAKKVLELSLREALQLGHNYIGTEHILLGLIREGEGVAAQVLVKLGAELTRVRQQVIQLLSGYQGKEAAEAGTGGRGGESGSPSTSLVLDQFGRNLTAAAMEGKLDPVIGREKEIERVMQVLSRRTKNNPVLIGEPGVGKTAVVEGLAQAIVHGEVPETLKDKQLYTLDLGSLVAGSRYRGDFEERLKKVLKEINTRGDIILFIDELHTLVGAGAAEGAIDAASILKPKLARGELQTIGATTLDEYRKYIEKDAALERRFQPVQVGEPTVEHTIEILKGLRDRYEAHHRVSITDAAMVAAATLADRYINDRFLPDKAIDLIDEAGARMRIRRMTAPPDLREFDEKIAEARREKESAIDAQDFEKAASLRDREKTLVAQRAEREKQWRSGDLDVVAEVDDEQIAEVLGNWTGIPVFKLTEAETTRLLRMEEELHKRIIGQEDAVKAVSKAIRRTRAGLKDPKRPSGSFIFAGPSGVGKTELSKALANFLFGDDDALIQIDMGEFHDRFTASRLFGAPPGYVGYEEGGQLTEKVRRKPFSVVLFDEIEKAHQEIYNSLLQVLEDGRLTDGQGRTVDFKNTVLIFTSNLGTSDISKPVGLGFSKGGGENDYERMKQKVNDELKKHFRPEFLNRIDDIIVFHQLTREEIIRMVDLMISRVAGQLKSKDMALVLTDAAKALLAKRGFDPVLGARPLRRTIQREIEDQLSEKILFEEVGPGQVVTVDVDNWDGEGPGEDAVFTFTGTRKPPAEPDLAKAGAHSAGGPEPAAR
Sequence of Universal stress protein (P9WLB5 whole entry): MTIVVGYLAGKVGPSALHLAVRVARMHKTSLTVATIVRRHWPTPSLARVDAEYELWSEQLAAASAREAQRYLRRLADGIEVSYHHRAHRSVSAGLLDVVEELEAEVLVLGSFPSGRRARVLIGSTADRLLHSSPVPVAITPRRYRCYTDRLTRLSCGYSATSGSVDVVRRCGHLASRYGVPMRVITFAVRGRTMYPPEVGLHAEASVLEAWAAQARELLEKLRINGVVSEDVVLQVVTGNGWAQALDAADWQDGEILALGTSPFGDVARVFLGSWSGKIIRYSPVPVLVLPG
Sequence of Polyphosphate kinase, Ppk (P9WHV9 whole entry): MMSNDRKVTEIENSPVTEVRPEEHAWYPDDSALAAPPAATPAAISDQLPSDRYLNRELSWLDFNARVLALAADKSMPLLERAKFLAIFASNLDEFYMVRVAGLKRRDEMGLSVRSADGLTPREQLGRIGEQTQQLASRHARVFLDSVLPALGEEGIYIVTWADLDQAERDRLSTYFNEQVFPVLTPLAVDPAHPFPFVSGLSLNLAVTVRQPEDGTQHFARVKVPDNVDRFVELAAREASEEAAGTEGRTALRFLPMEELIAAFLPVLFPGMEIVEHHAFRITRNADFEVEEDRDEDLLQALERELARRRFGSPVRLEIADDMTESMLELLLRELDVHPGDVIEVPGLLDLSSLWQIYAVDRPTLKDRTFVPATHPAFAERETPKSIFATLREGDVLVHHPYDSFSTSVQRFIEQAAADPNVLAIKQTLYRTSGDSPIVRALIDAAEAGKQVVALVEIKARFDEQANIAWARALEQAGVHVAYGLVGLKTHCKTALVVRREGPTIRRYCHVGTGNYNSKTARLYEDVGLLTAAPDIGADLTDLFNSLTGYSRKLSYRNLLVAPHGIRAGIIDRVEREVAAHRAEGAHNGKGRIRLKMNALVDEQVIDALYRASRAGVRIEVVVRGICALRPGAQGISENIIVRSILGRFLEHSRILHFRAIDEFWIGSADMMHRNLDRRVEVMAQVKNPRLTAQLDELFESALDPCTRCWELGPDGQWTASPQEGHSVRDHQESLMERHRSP

For the compound `Nc1ncnc2c1ncn2[C@@H]1O[C@H](COP(=O)(O)OP(=O)(O)OP(O)(O)=S)[C@@H](O)[C@H]1O` [ATPγS, adenosine 5′-[γ-thio]triphosphate tetralithium], the Fold change at Universal stress protein is reported as 4.75 fold; on Adenylate kinase, Adk, 2.12 fold; in assay [1] it was 6.56 fold; in assay [2], 3.98 fold; in assay [3], 6.80 fold.

The values are drawn from paper PMC3675820 (Molecular & Cellular Proteomics : MCP, 2013).
